Key:
Type in all cases: biochemical
[1] = test system: Brassica oleacea myrosinase A6; test: Myrosinase activity assay (glucose release from sinigrin hydrolysis), A6
Excerpt: (§1) In a preferred embodiment, the myrosinases derived from Armoracia rusticana (I1) and Brassica oleacea (A6) have a better stability and catalytic efficiency in various temperatures and pH values when compared with those derived from BMY1 and TGG1 (Table 1). In a preferred illustrative embodiment I1 myrosinase is selected owing to its Km value and improved kcat at the colorectal ambient temperature and pH (FIG. 2c, 2d and Table 1). By comparing the modeled-I1 myrosinase protein structure against that of the BMY1 myrosinase, the critical side chain residues involved in glucose-ring recognition and the glutamic acid that served as a nucleophile during catalysis are conserved. According to the claimed invention the improved catalytic efficiency of the I1 myrosinase is correlated to its pI value (pI=7.90) and the overall positively charged surface (FIG. 8) that contributes to better structural stability.
(§2) Gene cloning, protein expression and purification. Myrosinase genes are optimized for E. coli expression and cloned into the pET28b expression vector. The plasmids are transformed into E. coli BL21 (DE3) cultured in lysogeny broth (LB) (BD, Le Pont de Claix, France) at 37° C., 225 rpm to OD600 0.6 followed by 0.5 mM isopropyl β-D-1-thiogalactopyranoside (IPTG) induction at 16° C., 180 rpm for 16 hours. Cells are harvested, resuspended in lysis buffer (50 mM Tris-Cl, 300 mM NaCl, 10% glycerol, 1 mM dithiothreitol [DTT], pH 8.0) and lysed using Emulsiflex C-3 (Avestin). Expressed myrosinases are purified by IMAC Ni-NTA purification followed by Hi-Load Superdex 200 size exclusion column chromatography (GE, Uppsala, Sweden). The purified protein is concentrated and stored at −80° C. Pilot scale protein purification and enzymatic assay is conducted.
(§3) Myrosinase screening assay. The enzymatic reaction is measured for the release of glucose resulting from sinigrin hydrolysis. The reaction is conducted in sodium phosphate-buffered solution supplied in the Amplex® Red Glucose/Glucose Oxidase Assay Kit (Thermo Fisher Scientific, Geel, Belgium). The reaction buffer is prepared at different pH values (6.0, 6.5, 7.4 and 8.0) and at different reaction temperatures (34° C., 37° C., and 40° C.). The reaction is prepared using 0.1 μM purified myrosinase added to 1× Amplex® Red Glucose Assay reaction mixture and was kick-started with the corresponding concentration of sinigrin. The reaction can be measured at 560 nm absorbance and fluorescence (λex=540 nm, λem=590 nm) using a Synergy H1 Multi-Mode microtiter plate reader (BioTek®, Winooski, USA). The reaction initial velocity (VO) is determined and fitted into a Michaelis-Menten curve. Vmax and KM are determined by fitting into the Michaelis-Menten equation (Eq. 1) using GraphPad Prism Software. ^v=Vmax*[Sinigrin]/(KM+[Sinigrin]) (Eq.1)
(§4) Table S1|Myrosinase activity assay screening under various pH and temperature conditions (n=3 independent experiments, each measurement performed in triplicates; mean[…].).

[2] = test system: myrosinase Q5 (plant-derived myrosinase orthologue); test: Myrosinase activity assay (glucose release from sinigrin hydrolysis), Q5
Experimental: (§5) Screening for improved β-thioglucosidase. The activity and stability of myrosinase, a β-thioglucosidase that hydrolyzes glucosinolate to sulforaphane, varies at differing pH and temperature; in a preferred embodiment the selected enzyme needs to function under physiological colorectal conditions. The healthy colon pH averages 6.6, while it is 7.0 and 6.7 in patients with adenoma and carcinoma, respectively. In addition, the temperature of the human intestinal tract ranges from 36° C. to 40° C. depending on the individual's metabolic state. In the illustrative example five plant-derived myrosinase orthologues with minimal glycosylation sites and the absence of the co-factor-binding sites using the BLAST search and the Enzyme Function Initiative-Enzyme Similarity Tool (EFI-EST), are compared to the well-characterized myrosinases from Brevicoryne brassicae (BMY1) and Arabidopsis thaliana (TGG1) (FIG. 2a and FIG. 7).
as §2, §3, §4

[3] = molecular target: T1, Armoracia rusticana myrosinase I1, SEQ ID NO: 6 (Armoracia rusticana, UniProt I1TIJ2); test: Myrosinase activity assay (glucose release from sinigrin hydrolysis), I1
T1 construct: elsewhere used as YebF-I1 fusion
T1 sequence (I1TIJ2 23-510): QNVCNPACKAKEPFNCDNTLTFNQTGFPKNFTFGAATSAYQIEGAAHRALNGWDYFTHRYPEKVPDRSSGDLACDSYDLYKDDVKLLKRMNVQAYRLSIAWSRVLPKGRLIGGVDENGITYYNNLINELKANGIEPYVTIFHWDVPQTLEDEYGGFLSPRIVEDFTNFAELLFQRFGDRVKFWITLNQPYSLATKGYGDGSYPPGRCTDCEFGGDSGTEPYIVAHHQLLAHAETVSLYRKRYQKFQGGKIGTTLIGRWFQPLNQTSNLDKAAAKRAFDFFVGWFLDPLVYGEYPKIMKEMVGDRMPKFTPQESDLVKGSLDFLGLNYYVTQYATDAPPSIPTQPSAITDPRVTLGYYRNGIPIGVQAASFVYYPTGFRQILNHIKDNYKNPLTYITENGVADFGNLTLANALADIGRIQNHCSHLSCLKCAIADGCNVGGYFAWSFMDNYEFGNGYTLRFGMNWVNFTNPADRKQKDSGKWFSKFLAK
Excerpt: as §1, §2, §3, §4

[4] = test system: myrosinase C9 (plant-derived myrosinase orthologue); test: Myrosinase activity assay (glucose release from sinigrin hydrolysis), C9
Experimental: as §5, §2, §3, §4

[5] = molecular target: T2, Brevicoryne brassicae myrosinase BMY1 (Brevicoryne brassicae, UniProt Q95X01); test: Myrosinase activity assay (glucose release from sinigrin hydrolysis), BMY1
T2 sequence (Q95X01 1-464): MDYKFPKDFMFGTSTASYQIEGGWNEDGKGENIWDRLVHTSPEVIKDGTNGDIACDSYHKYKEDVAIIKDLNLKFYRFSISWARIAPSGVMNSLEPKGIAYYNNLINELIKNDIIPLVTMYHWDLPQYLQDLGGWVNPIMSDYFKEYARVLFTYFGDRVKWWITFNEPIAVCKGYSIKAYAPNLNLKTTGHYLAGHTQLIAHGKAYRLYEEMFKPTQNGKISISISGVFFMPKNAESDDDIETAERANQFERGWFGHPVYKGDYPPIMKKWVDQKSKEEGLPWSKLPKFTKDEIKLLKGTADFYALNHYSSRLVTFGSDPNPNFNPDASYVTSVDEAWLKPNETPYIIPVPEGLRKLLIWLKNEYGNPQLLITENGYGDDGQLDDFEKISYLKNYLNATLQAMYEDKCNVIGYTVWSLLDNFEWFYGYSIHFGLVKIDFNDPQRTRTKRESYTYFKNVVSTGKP
Experimental: as §5, §2, §3, §4

[6] = molecular target: Arabidopsis thaliana myrosinase TGG1 (Arabidopsis thaliana, UniProt P37702); test: Myrosinase activity assay (glucose release from sinigrin hydrolysis), TGG1
Experimental: as §5, §2, §3, §4

[7] = test system: myrosinase Q9 (plant-derived myrosinase orthologue); test: Myrosinase activity assay (glucose release from sinigrin hydrolysis), Q9
Experimental: as §5, §2, §3, §4

Arabidopsis thaliana myrosinase TGG1, sequence (P37702 20-541): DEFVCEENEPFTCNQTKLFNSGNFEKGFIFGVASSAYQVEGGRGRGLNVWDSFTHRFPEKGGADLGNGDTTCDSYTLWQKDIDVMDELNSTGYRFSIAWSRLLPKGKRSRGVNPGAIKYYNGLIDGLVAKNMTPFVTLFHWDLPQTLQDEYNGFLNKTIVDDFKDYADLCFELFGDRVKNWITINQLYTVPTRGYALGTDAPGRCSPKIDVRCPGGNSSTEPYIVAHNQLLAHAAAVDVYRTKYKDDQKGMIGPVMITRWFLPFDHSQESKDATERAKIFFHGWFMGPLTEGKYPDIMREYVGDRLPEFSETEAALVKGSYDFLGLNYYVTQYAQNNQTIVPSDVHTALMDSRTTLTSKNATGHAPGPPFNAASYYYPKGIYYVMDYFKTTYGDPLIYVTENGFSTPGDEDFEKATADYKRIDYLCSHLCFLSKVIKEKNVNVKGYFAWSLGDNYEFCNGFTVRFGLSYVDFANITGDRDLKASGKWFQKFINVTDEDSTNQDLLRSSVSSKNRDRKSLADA

## C=CC/C(=N/OS(=O)(=O)O)S[C@@H]1O[C@H](CO)[C@@H](O)[C@H](O)[C@H]1O [sinigrin]
[1]; pH 6.0, 37° C.
  Km: 68 ± 2 µM
  kcar: 6.6 ± 1.3 s⁻¹
[1]; pH 6.5, 37° C.
  Km: 187 ± 13 µM
  kcar: 15.0 ± 1.5 s⁻¹
[1]; pH 7.4, 34° C.
  Km: 47 ± 5 µM
  kcar: 7.2 ± 1.3 s⁻¹
[1]; pH 7.4, 37° C.
  Km: 44 ± 4 µM
  kcar: 5.2 ± 0.9 s⁻¹
[1]; pH 7.4, 40° C.
  Km: 189 ± 39 µM
  kcar: 9.7 ± 1.3 s⁻¹
[1]; pH 8.0, 37° C.
  Km: 142 ± 22 µM
  kcar: 9.3 ± 1.2 s⁻¹
[2]; pH 6.0, 37° C.
  Km: 184 ± 15 µM
  kcar: 4.6 ± 1.1 s⁻¹
[2]; pH 6.5, 37° C.
  Km: 127 ± 21 µM
  kcar: 4.9 ± 1.2 s⁻¹
[2]; pH 7.4, 34° C.
  Km: 225 ± 13 µM
  kcar: 2.9 ± 1.4 s⁻¹
[2]; pH 7.4, 37° C.
  Km: 25 ± 7 µM
  kcar: 2.1 ± 1.6 s⁻¹
[2]; pH 7.4, 40° C.
  Km: 49 ± 14 µM
  kcar: 3.7 ± 1.6 s⁻¹
[2]; pH 8.0, 37° C.
  Km: 154 ± 24 µM
  kcar: 2.8 ± 1.1 s⁻¹
[3]; pH 6.0, 37° C.
  kcar: 6.6 ± 0.7 s⁻¹
[3]; pH 6.5, 37° C.
  kcar: 7.9 ± 1.1 s⁻¹
[3]; pH 7.4, 34° C.
  kcar: 3.4 ± 0.7 s⁻¹
[3]; pH 7.4, 37° C.
  kcar: 15.0 ± 1.5 s⁻¹
[3]; pH 7.4, 40° C.
  kcar: 15.2 ± 1.5 s⁻¹
[3]; pH 8.0, 37° C.
  kcar: 6.6 ± 3.1 s⁻¹
[4]; pH 6.0, 37° C.
  Km: 439 ± 97 µM
  kcar: 5.6 ± 0.8 s⁻¹
[4]; pH 6.5, 37° C.
  Km: 290 ± 31 µM
  kcar: 9.0 ± 0.9 s⁻¹
[4]; pH 7.4, 34° C.
  Km: 384 ± 28 µM
  kcar: 11.2 ± 2.4 s⁻¹
[4]; pH 7.4, 37° C.
  Km: 38 ± 2 µM
  kcar: 3.4 ± 0.6 s⁻¹
[4]; pH 7.4, 40° C.
  Km: 352 ± 68 µM
  kcar: 9.0 ± 0.9 s⁻¹
[4]; pH 8.0, 37° C.
  Km: 842 ± 80 µM
  kcar: 10.7 ± 1.3 s⁻¹
[5]; pH 6.0, 37° C.
  kcar: 5.7 ± 0.8 s⁻¹
[5]; pH 6.5, 37° C.
  kcar: 11.8 ± 0.4 s⁻¹
[5]; pH 7.4, 34° C.
  kcar: 6.9 ± 0.4 s⁻¹
[5]; pH 7.4, 37° C.
  kcar: 6.0 ± 0.7 s⁻¹
[5]; pH 7.4, 40° C.
  kcar: 9.1 ± 0.8 s⁻¹
[5]; pH 8.0, 37° C.
  kcar: 5.6 ± 0.6 s⁻¹
[6]; pH 6.0, 37° C.
  kcar: 10.2 ± 0.6 s⁻¹
[6]; pH 6.5, 37° C.
  kcar: 8.6 ± 1.6 s⁻¹
[6]; pH 7.4, 34° C.
  kcar: 6.9 ± 1.6 s⁻¹
[6]; pH 7.4, 37° C.
  kcar: 6.4 ± 1.1 s⁻¹
[6]; pH 7.4, 40° C.
  kcar: 6.5 ± 0.2 s⁻¹
[6]; pH 8.0, 37° C.
  kcar: 4.3 ± 0.7 s⁻¹
[7]; pH 6.0, 37° C.
  Km: 111 ± 3 µM
  kcar: 3.0 ± 0.6 s⁻¹
[7]; pH 6.5, 37° C.
  Km: 291 ± 5 µM
  kcar: 7.8 ± 0.8 s⁻¹
[7]; pH 7.4, 34° C.
  kcar: 13.0 ± 3.5 s⁻¹
[7]; pH 7.4, 37° C.
  kcar: 3.8 ± 1.5 s⁻¹
[7]; pH 7.4, 40° C.
  Km: 893 ± 23 µM
  kcar: 12.3 ± 3.9 s⁻¹
[7]; pH 8.0, 37° C.
  Km: 473 ± 6 µM
  kcar: 4.4 ± 1.0 s⁻¹

— US11925667B2, “Engineered therapeutic probiotic system and method” (priority 2018, dated 2024)
